Assay [1] relates to HCT116. As to the kind of experiment: efficacy (fitted maximal change in viability relative to DMSO control); higher = less cytotoxic (negative = loss of viability). To be noted: 48 h.
For assay [2], the system named is HCT116. In words: AC50 cell viability (CellTiter-Glo); higher = less potent. The conditions noted are these: 48 h. In general terms: Cellular ATP, detected with luciferase, serves as a proxy for viable cell number.

Structures are written as SMILES. Counter-ions that a name gives are not always drawn.
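Wherever AC50 cell viability (CellTiter-Glo) is given: HCT116 colorectal carcinoma cells screened at five concentrations per compound, luminescent viability scaled between DMSO wells and empty wells on each plate, curves fitted per compound.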
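Wherever efficacy (fitted maximal change in viability relative to DMSO control) is given: Luminescence-based viability readout, five doses per compound, normalized against on-plate DMSO and empty-well controls, followed by dose-response curve fitting for every drug.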

Consider `Nc1n[n+]([O-])c2ccccc2[n+]1[O-]` [Tirapazamine], for which the efficacy in assay [1] is -30.4%. The molecule further gave an AC50 cell viability in assay [2] of 13200 nM.

Turning to `O=C1NC(=O)[C@@H](c2c[nH]c3ccccc23)[C@H]1c1cn2c3c(cccc13)CCC2` [Tivantinib (ARQ 197)], the efficacy in assay [1] is -62.9%. Moreover, the AC50 cell viability in assay [2] was 934 nM.

On to `COc1cc2nccc(Oc3ccc(NC(=O)Nc4cc(C)on4)c(Cl)c3)c2cc1OC` [Tivozanib (AV-951)], for which the efficacy in assay [1] is -80.3%. Also, in assay [2], the AC50 cell viability is 11800 nM.

Regarding `Cc1[nH]c(/C=C2\C(=O)Nc3ccc(F)cc32)c(C)c1C(=O)NCCN1CCCC1` [Toceranib], the efficacy in assay [1] was -95.7%. The molecule also returned an AC50 cell viability in assay [2] of 8110 nM.

Turning to `CC[C@@]1(O)C(=O)OCc2c1cc1n(c2=O)Cc2cc3c(CN(C)C)c(O)ccc3nc2-1.Cl` [Topotecan hydrochloride], the efficacy in assay [1] was -93%. Also, the AC50 cell viability in assay [2] is 590 nM.

Turning to `CCOC(=O)N1c2ccc(C(F)(F)F)cc2[C@@H](N(Cc2cc(C(F)(F)F)cc(C(F)(F)F)c2)C(=O)OC)C[C@H]1CC` [Torcetrapib], in assay [1], the efficacy is -45.4%. The molecule also registered an AC50 cell viability in assay [2] of 8330 nM.

Take `CN(C)CCOc1ccc(/C(=C(/CCCl)c2ccccc2)c2ccccc2)cc1` [Toremifene citrate]: the efficacy in assay [1] is -99.7%. For the same molecule, in assay [2], the AC50 cell viability worked out at 20900 nM.

Consider `CCC(=O)N1CCN(CC1)C2=C(C=C(C=C2)N3C(=O)\C=C/C4=C3C5=CC(=CC=C5N=C4)C6=CN=C7C=CC=CC7=C6)C(F)(F)F` [Torin-1], for which, in assay [1], the efficacy is -60%. Moreover, in assay [2], the AC50 cell viability was 72.3 nM.

Regarding `NC1=NC=C(C=C1)C2=CC=C3N=CC\4=C(N(C(=O)\C=C4)C5=CC(=CC=C5)C(F)(F)F)C3=C2` [Torin-2], the efficacy in assay [1] is -96.6%. This molecule displayed an AC50 cell viability in assay [2] of 166 nM.

With `CC(C)N1N/C(=C2\C=c3cc(O)ccc3=N2)c2c(N)ncnc21` [Torkinib], the efficacy in assay [1] is -125%. In assay [2], this molecule gave an AC50 cell viability of 5250 nM.

Take `CC(C)C[C@@H](C(=O)N[C@H](C(=O)OC1CCCC1)c1ccccc1)[C@H](O)C(=O)NO` [Tosedostat]: in assay [1], the efficacy was -95.7%. The AC50 cell viability in assay [2] is 4170 nM.

With `Cc1cc(Nc2cc(N3CCN(C)CC3)nc(Sc3ccc(NC(=O)C4CC4)cc3)n2)[nH]n1` [Tozasertib], the efficacy in assay [1] was -95.2%. Further, the AC50 cell viability in assay [2] stood at 7420 nM.

For `COc1cc2c(cc1O)CCN[C@]21CS[C@@H]2c3c(OC(C)=O)c(C)c4c(c3[C@H](COC1=O)N1[C@@H]2[C@H]2c3c(cc(C)c(OC)c3O)C[C@@H]([C@@H]1O)N2C)OCO4` [Trabectedin], the efficacy in assay [1] was -69.8%. For the same molecule, the AC50 cell viability in assay [2] amounted to 12.1 nM.

As to `CN1C(=O)C(=C/2N(C(=O)N(C3CC3)C(=O)C2=C1/NC4=CC=C(I)C=C4F)C5=CC=CC(=C5)NC(C)=O)\C` [Trametinib], in assay [1], the efficacy is -62.3%. The AC50 cell viability in assay [2] amounted to 46.8 nM.

On to `CC(/C=C/C(=O)NO)=C\[C@@H](C)C(=O)c1ccc(N(C)C)cc1` [Trichostatin A], for which, in assay [1], the efficacy was -82.3%. In addition, the AC50 cell viability in assay [2] came to 332 nM.

Consider `CN1\N=C(N)/C2=C[N]([C@@H]3O[C@H](CO[P](O)(O)=O)[C@@H](O)[C@H]3O)C4=C2C1=NC=N4` [Triciribine phosphate], for which, in assay [1], the efficacy was -90.5%. In addition, the AC50 cell viability in assay [2] was 2950 nM.

As for `CN1CCN(CCCN2c3ccccc3Sc3ccc(C(F)(F)F)cc32)CC1` [Trifluoperazine hydrochloride], the efficacy in assay [1] was -119%. The AC50 cell viability in assay [2] stood at 26300 nM.

As to `OC[C@H]1O[C@H](C[C@@H]1O)N2/C=C(C(=O)NC2=O)/C(F)(F)F` [Trifluridine], the efficacy in assay [1] was -62.4%. In assay [2], this molecule came in with an AC50 cell viability of 2630 nM.

For `C[C@]12CC[C@H]3[C@@H](CC[C@@]45O[C@@H]4\C(=C(/C[C@]35C)C#N)O)[C@@H]1CC[C@@H]2O` [Trilostane], the efficacy in assay [1] was -31.9%. The molecule also returned an AC50 cell viability in assay [2] of 13200 nM.

For the molecule `COc1cc(NCc2ccc3nc(N)nc(N)c3c2C)cc(OC)c1OC` [Trimetrexate], the efficacy in assay [1] was -77.8%. The molecule also returned an AC50 cell viability in assay [2] of 1050 nM.

For `CC/1=C(\O)C(=O)\C=C2/C1=C\C=C3/[C@@]2(C)CC[C@@]4(C)[C@@H]5C[C@@](C)(CC[C@]5(C)CC[C@]34C)C(O)=O` [Tripterin], in assay [1], the efficacy is -98.9%. Besides, in assay [2], the AC50 cell viability came to 3320 nM.

On to `CC(C)[C@]12O[C@H]1[C@@H]3O[C@@]34[C@@]5(C)CC\C6=C(COC6=O)/[C@@H]5C[C@@H]7O[C@]47[C@@H]2O` [Triptolide], for which the efficacy in assay [1] is -52.7%. This molecule also yielded an AC50 cell viability in assay [2] of 23.5 nM.

With `CC(C)[C@]12O[C@H]1[C@@H]3O[C@@]34[C@@]5(C)CC\C6=C(COC6=O)/[C@@H]5C[C@@H]7O[C@]47C2=O` [Triptonide], the efficacy in assay [1] is -59.2%. The AC50 cell viability in assay [2] is 29.5 nM.
